Laboratory results reported in patent US20100035866A1, “NOVEL SUBSTITUTED-1, 1-DIOXO-BENZO[1,2,4]THIADIAZIN-3ONES, PREPARATION METHOD THEREOF, AND PHARMACEUTICAL COMPOSITION CONTAINING THE SAME” (KOREA RESEARCH INSTITUTE OF CHEMICAL TECHNOLOGY, priority 2006, published 2010).

Legend:
[1] = biological target: T1, 5-HT1a (Homo sapiens, UniProt P08908); assay: Radioligand binding, 5-HT receptor family: 5-HT1a ([3H]8-OH-DPAT); details: CHO-K1 human recombinant receptor, [3H]8-OH-DPAT 0.5 nM; read-out: Binding affinity, IC50 (nM), 5-HT1a
T1 construct: purchased Euroscreen/BioSignal Packard Inc
T1 sequence (P08908 1-422): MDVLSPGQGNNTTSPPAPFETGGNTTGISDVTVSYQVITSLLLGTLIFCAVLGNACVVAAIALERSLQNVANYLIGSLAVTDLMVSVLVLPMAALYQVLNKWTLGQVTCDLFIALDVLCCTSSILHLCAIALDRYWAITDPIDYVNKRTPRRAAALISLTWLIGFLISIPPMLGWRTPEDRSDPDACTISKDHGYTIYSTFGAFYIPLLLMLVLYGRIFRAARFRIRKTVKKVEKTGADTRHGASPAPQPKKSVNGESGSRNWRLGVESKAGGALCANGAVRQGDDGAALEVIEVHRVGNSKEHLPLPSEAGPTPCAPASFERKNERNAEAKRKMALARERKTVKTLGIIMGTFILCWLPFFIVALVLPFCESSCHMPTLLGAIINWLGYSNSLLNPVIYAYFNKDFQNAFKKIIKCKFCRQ

[2] = biological target: T2, 5-HT2a (Homo sapiens, UniProt P28223); assay: Radioligand binding, 5-HT receptor family: 5-HT2a ([3H]Ketanserin); details: CHO-K1 human recombinant receptor, [3H]Ketanserin 1 nM; read-out: Binding affinity, IC50 (nM), 5-HT2a
T2 construct: purchased Euroscreen/BioSignal Packard Inc

[3] = biological target: T3, 5-HT2c (Homo sapiens, UniProt P28335); assay: Radioligand binding, 5-HT receptor family: 5-HT2c ([3H]Mesulergine); details: CHO-K1 human recombinant receptor, [3H]Mesulergine 1 nM; read-out: Binding affinity, IC50 (nM), 5-HT2c
T3 construct: purchased Euroscreen/BioSignal Packard Inc
T3 sequence (P28335 33-458): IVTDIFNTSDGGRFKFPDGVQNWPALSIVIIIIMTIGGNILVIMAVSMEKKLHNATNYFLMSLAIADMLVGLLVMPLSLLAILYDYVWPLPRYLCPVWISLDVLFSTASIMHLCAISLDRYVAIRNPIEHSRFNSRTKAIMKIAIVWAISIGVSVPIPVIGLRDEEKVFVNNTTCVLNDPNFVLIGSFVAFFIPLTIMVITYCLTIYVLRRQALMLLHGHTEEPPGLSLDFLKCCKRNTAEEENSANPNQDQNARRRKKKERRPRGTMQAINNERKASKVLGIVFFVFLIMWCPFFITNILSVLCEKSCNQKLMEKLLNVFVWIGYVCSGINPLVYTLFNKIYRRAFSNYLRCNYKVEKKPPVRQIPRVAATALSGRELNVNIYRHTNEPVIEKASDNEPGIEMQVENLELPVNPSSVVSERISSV

[4] = biological target: T4, 5-HT7 (Homo sapiens, UniProt P34969); assay: Radioligand binding, 5-HT receptor family: 5-HT7 ([3H]LSD); details: CHO-K1 human recombinant receptor, [3H]LSD 3 nM; read-out: Binding affinity, IC50 (nM), 5-HT7
T4 construct: purchased Euroscreen/BioSignal Packard Inc
Experimental: Radioligand bindings were performed according to the test method provided by the supplier of receptor membrane (Euroscreen/BioSignal Packard Inc.). The detailed assay conditions and the results were shown in the following Table 3 and Table 4, respectively.

[5] = biological target: D1 (Homo sapiens, UniProt P21728); assay: Dopamine receptor family binding: D1; details: read-out: Binding affinity, IC50 (nM), D1
[6] = biological target: T5, hD2L receptor (Homo sapiens, UniProt P14416); assay: Dopamine receptor family binding: D2 ([3H]spiperone); details: [3H]spiperone 1 nM; read-out: Binding affinity, IC50 (nM), D2
T5 construct: purchased BioSignal Packard Inc., Montreal, Canada
Experimental: (§1) 2-2: Binding Assays of Dopamine Receptor Family
(§2) The radioligands used were [^3H]spiperone (for hD2L and hD3 receptors, 1 nM) and [^3H] YM-09151-2 (for hD4.2 receptor, 0.06 nM). Radioligand bindings were performed by the protocols provided by the supplier of receptor membranes (BioSignal Packard Inc., Montreal, Canada). Briefly, the buffer used in D2 or D3 receptor binding assay was 50 mM Tris-HCl (pH 7.4), 10 mM MgCl2, 1 mM EDTA, or 50 mM Tris-HCl (pH 7.4), 5 mM MgCl2 5 mM EDTA, 5 mM KCl, 1.5 mM CaCl2, 120 mM NaCl, respectively. In [^3H] YM-09151-2 receptor binding assays, the buffer containing 50 mM Tris-HCl (pH 7.4), 5 mM MgCl2, 5 mM EDTA, 5 mM KCl and 1.5 mM CaCl2 was used. […] Competition binding studies were carried out with 7-8 concentrations of the test compound run in duplicate tubes, and isotherms from three assays were calculated by computerized nonlinear regression analysis (GraphPad Prism Program, San Diego, […]) to yield median inhibitory concentration (IC50) values.

[7] = biological target: T6, hD3 receptor (Homo sapiens, UniProt P35462); assay: Dopamine receptor family binding: D3 ([3H]spiperone); details: [3H]spiperone 1 nM; read-out: Binding affinity, IC50 (nM), D3
T6 construct: purchased BioSignal Packard Inc., Montreal, Canada

[8] = biological target: T7, hD4.2 receptor (Homo sapiens, UniProt P21917, DEL265-296); assay: Dopamine receptor family binding: D4 ([3H]YM-09151-2); details: [3H]YM-09151-2 0.06 nM; read-out: Binding affinity, IC50 (nM), D4
T7 construct: purchased BioSignal Packard Inc., Montreal, Canada
T7 sequence (P21917 with tags, fused parts or gaps DEL265-296): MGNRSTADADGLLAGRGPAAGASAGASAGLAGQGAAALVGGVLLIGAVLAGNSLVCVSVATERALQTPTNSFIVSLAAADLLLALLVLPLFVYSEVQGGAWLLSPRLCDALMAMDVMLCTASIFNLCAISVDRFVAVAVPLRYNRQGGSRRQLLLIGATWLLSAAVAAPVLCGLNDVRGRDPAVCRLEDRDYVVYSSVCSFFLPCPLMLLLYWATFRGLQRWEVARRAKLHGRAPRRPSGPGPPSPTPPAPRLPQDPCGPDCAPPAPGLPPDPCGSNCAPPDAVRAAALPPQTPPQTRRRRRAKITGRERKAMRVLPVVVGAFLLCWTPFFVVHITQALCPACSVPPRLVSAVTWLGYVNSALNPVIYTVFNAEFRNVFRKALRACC
Experimental: as §1, §2

[9] = tested on: mice; assay: Rotarod deficit; details: mouse, in vivo
Experimental: The mouse was placed on a 1 inch diameter knurled plastic rod rotating at 6 rpm (Ugo-Basile, Milano, Italy), and the rotarod deficit (%) was obtained by counting the number of animals fallen from the rotating rod within 1 min (Dunham et al., 1957) at 30, 60, 90 and 120 min after the injection of test compound.

[10] = biological target: Human serotonin 5-HT6 receptor (Homo sapiens, UniProt P50406); assay: [3H]LSD binding assay on cloned 5-HT6 receptor; details: IC50 (nM)
[11] = tested on: rats; assay: Apomorphine-induced disruption of prepulse inhibition (PPI) of acoustic startle; details: for effect on PPI of compound alone vs vehicle control: rats, 2.5, 5, 10 & 20 mg/kg, without apomorphine; for effect on PPI of compound alone vs vehicle control / reversal of disruption of PPI by apomorphine: i.p.; for mean startle amplitude vs apomorphine control group / reversal of disruption of PPI by apomorphine: rats; for mean startle amplitude vs apomorphine control group: administered 30 min before apomorphine; for reversal of disruption of PPI by apomorphine: pretreatment i.p. 30 min before apomorphine 2 mg/kg
[12] = tested on: HeLa cells transfected with the human 5-HT6 receptor; assay: Cytotoxicity in HeLa cells of the cAMP assay; format: cell-based; details: at the concentrations tested (0.001-10 μM)
[13] = biological target: T8, 5-HT6 receptors (Homo sapiens, UniProt P50406); assay: Adenylyl cyclase activity (cAMP accumulation) in HeLa cells transfected with human 5-HT6 receptor
[14] = biological target: T8, 5-HT6 receptors; details: human 5-HT6 receptors, Glennon et al.; cited from earlier work
[15] = tested on: rat; details: cited from earlier work; for anticonvulsant activity: earlier finding
[16] = tested on: rats; details: cited from earlier work
[17] = tested on: rats; details: cited from earlier work; remark: listed apart in the source
[18] = frontal cortex and dorsal hippocampus; cited from earlier work
[19] = background art; cited from earlier work
[20] = biological target: T8, 5-HT6 receptors; details: antipsychotics, Roth et al. 1994; cited from earlier work
[21] = Binding affinity, 5-HT6, Table 4
[22] = binding affinity to the 5-HT6 receptor, Table 2, 1.87 nM [3H]LSD, cloned human receptor membranes from Sf21 cells, 37° C. 60 min
[23] = HeLa, read-out: inhibition of 0.3 μM serotonin (5-HT)-induced increase in cAMP levels

Chain of D1 (P21728 whole entry): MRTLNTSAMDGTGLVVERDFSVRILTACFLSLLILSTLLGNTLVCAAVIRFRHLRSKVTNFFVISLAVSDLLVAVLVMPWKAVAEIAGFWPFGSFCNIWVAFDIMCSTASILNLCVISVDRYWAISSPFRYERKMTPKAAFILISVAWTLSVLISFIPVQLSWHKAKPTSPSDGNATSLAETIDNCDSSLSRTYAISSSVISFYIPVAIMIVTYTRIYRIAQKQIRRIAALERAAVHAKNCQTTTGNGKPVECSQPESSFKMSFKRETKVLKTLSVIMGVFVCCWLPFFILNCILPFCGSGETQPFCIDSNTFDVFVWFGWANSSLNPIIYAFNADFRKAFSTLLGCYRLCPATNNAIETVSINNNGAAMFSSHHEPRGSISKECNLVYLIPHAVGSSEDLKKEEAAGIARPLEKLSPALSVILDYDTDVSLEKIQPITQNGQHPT
T5 sequence (P14416 whole entry): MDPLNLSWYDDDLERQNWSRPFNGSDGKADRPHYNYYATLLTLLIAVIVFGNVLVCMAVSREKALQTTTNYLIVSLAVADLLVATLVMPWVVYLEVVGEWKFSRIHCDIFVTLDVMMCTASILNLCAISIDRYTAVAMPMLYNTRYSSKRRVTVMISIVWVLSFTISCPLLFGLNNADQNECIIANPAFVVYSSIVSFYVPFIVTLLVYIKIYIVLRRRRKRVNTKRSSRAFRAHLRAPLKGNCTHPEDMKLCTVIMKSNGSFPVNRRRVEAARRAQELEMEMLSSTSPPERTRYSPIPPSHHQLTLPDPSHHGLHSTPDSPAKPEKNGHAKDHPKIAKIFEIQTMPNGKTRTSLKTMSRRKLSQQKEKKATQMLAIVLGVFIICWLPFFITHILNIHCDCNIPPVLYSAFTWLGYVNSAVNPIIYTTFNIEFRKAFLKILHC
T6 sequence (P35462 whole entry): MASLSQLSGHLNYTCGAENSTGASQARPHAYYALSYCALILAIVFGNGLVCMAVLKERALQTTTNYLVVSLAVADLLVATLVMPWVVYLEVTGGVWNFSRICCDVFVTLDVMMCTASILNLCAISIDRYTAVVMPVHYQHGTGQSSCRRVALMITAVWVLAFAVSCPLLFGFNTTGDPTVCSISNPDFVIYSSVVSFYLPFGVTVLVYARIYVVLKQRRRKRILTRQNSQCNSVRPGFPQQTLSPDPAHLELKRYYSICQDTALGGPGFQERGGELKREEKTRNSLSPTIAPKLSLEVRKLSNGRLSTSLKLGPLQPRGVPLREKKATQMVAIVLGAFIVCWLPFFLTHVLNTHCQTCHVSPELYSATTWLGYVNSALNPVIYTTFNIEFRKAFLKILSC
Chain of Human serotonin 5-HT6 receptor (P50406 whole entry): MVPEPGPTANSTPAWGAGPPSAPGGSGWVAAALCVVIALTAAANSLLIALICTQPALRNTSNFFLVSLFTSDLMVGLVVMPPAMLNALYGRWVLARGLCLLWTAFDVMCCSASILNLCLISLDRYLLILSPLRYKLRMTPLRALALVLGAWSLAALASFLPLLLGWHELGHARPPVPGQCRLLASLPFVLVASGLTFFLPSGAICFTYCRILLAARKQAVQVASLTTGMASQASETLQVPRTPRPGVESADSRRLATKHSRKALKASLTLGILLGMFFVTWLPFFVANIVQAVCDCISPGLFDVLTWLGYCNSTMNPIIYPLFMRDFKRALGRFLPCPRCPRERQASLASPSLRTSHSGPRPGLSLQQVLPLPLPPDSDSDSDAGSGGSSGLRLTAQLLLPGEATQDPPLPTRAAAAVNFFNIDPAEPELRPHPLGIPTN
T8 sequence (P50406 whole entry): as above
T4 sequence (P34969 whole entry): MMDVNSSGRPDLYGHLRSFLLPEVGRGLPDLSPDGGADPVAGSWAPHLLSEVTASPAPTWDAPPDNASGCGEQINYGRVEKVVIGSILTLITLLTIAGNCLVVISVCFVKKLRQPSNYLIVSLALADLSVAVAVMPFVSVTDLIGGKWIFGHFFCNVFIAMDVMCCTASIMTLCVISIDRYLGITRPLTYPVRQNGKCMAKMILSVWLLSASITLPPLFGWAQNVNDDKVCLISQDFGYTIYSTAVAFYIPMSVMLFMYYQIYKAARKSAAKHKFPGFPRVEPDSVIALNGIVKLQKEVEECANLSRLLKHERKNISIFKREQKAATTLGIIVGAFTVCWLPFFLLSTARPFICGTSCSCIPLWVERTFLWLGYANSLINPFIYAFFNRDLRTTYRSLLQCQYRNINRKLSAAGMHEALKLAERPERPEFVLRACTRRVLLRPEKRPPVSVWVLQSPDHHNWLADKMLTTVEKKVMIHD
T2 sequence (P28223 whole entry): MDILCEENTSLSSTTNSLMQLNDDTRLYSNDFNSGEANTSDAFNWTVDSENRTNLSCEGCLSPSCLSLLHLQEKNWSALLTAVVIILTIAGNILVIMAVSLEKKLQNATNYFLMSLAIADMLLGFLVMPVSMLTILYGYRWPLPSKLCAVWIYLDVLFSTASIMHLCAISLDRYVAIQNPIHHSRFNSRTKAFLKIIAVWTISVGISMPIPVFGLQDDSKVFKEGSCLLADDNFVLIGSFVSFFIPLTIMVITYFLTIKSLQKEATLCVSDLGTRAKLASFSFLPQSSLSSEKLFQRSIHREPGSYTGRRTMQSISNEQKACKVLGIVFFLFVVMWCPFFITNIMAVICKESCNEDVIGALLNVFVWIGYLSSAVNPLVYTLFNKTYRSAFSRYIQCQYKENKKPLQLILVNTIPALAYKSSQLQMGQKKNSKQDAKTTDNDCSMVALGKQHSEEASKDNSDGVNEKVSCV

Compound | IC50 [1] [nM] | IC50 [2] [nM] | IC50 [3] [nM] | IC50 [4] [nM] | IC50 [5] [nM] | IC50 [6] [nM] | IC50 [7] [nM] | IC50 [8] [nM] | melting point [°C] | IC50 [10, 21] [nM] | IC50 [10, 22] [nM] | reversal of disruption of PPI by apomorphine [11] | further results
CN1CCN(c2cc(Cl)cc3c2S(=O)(=O)N(Cc2ccccc2)C(=O)N3Cc2ccccc2)CC1 [Example 1, 2,4-Dibenzyl-6-chloro-8-(4-methyl-piperazin-1-yl)-1,1-dioxo-1,4-dihydro-2H-1λ^6-benzo[1,2,4]thiadiazin-3-one] | 997 | 354 | 785 | 6580 | 3050 | 5810 | 633 | > 10000 | 100 to 101 | 1.9 | 1.9 | reversed significantly | rotarod ataxia / rotarod deficit (in words) [9]: did not show any rotarod ataxia; median neurotoxic dose (TD50), rotarod ([9]; ip): more than 300 □/□; effect on PPI of compound alone vs vehicle control [11]: no significant effect; mean startle amplitude vs apomorphine control group [11]: no significant differences
O=C1N(Cc2ccccc2)c2cc(Cl)cc(N3CCNCC3)c2S(=O)(=O)N1Cc1ccccc1 [Example 44, 2,4-Dibenzyl-6-chloro-1,1-dioxo-8-piperazin-1-yl-1,4-dihydro-2H-1λ^6-benzo[1,2,4]thiadiazin-3-one] | 5400 | 1160 | 1880 | > 10000 | 6390 | 667 | 1210 | > 10000 | 108 to 109 | 1 | 0.9 | reversed significantly | cytotoxicity [12]: did not show any cytotoxicity; TD50 relative to effective doses obtained in the PPI test [9]: about 8 times; rotarod ataxia / rotarod deficit (in words) [9]: moderate rotarod deficit; effect on PPI of compound alone vs vehicle control [11]: no significant effect; mean startle amplitude vs apomorphine control group [11]: no significant differences; IC50 [13]: 0.0678 µM; 5-HT-induced increase in cAMP level inhibited (in words) ([13]; FIG. 1): inhibited; inhibition at 0.001 µM [13, 23]: 0%; inhibition at 0.01 µM [13, 23]: 8%; inhibition at 0.1 µM [13, 23]: 63%; inhibition at 1 µM [13, 23]: 100%; inhibition at 10 µM [13, 23]: 100%
Cc1cc(C)cc(CCCN2C(=O)N(Cc3ccccc3)c3cc(Cl)cc(N4CCNCC4)c3S2(=O)=O)c1 [Example 66, 4-Benzyl-6-chloro-2-[3-(3,5-dimethyl-phenyl)-propyl]-1,1-dioxo-8-piperazin-1-yl-1,4-dihydro-2H-1λ^6-benzo[1,2,4]thiadiazin-3-one] | 1840 | 710 | 498 | 4530 | 1180 | 1640 | 488 | > 10000 | 226 to 228 | 3.8 | 3.8 |  | 
COc1ccc2c(c1)c(CCN(C)C)cn2S(=O)(=O)c1ccccc1 [MS-245] |  |  |  |  |  |  |  |  |  |  |  |  | pA2, antagonist [14]: 8.88
CNc1cc(NS(=O)(=O)c2ccc(N)cc2)nc(NC)n1 [Ro 04-6790] |  |  |  |  |  |  |  |  |  |  |  |  | anticonvulsant activity [15]: possess anticonvulsant activity; food intake [16]: decreased food intake
COc1ccc(NS(=O)(=O)c2sc3ccc(Cl)cc3c2C)cc1N1CCNCC1 [SB-271046, reference compound] |  |  |  |  |  |  |  |  |  |  |  | did not reverse | retention of a previously learned task in water maze [17]: significant improvement; extracellular glutamate levels [18]: increased extracellular glutamate levels in frontal cortex and dorsal hippocampus by several fold; anticonvulsant activity [15]: possess anticonvulsant activity
COc1ccc(S(=O)(=O)Nc2cc(Br)cc(F)c2Br)cc1N1CCNCC1 [SB-357134] |  |  |  |  |  |  |  |  |  |  |  |  | bioavailability (in words) [19]: excellent oral bioavailability; blood clearance (in words) [19]: low clearance rate; retention of a previously learned task in water maze [17]: significant improvement; seizure threshold (rat maximal electroseizure threshold) ([15]; oral administration): potent and dose-dependent increase
CN(C)CCCN1c2ccccc2Sc2ccc(Cl)cc21 [chlorpromazine] |  |  |  |  |  |  |  |  |  |  |  |  | binding affinity at 5-HT6 receptors (in words) [20]: high affinity
CN(C)CC/C=C1/c2ccccc2Sc2ccc(Cl)cc21 [chlorprothixene] |  |  |  |  |  |  |  |  |  |  |  |  | binding affinity at 5-HT6 receptors (in words) [20]: high affinity
